Structures are written as SMILES.

The first assay in a line: The compound was tested for its binding affinity towards sigma receptor in guinea pig brain membranes.
`FC(F)(F)c1cccc(N2CCN(CCCCc3ccccc3)CC2)c1` came in with a Ki of 5.4 nM.

`Clc1cccc(N2CCN(CCc3ccccc3)CC2)c1`: the affinity corresponds to a Ki of 11 nM.

On to `O=C(c1ccccc1)N1CCNCC1`, for which the Ki was determined as 11400 nM.

`c1ccc(CCCN2CCN(c3ccc4ccccc4c3)CC2)cc1` registered a Ki of 2.8 nM.

For `Clc1ccc(N2CCN(CCCc3ccccc3)CC2)cc1`, the Ki amounted to 2.9 nM.

`COc1ccccc1C1(O)CCNCC1` came in with a Ki of 14300 nM.

Molecule `c1ccc(CCCCN2CCN(c3ccccc3)CC2)cc1` showed a Ki of 2.6 nM.

Experiment in another assay: as above
This is another data set of the same source.
Turning to `Clc1ccc(C2=CCN(CCCCc3ccccc3)CC2)cc1`, the affinity corresponds to a Ki of 4.1 nM.

In general, Ki refers to the equilibrium dissociation constant of an inhibitor or competing ligand from its target.

Values taken from BindingDB's records for doi:10.1021/jm00116a003 (Virginia Commonwealth University, 1992).
